Reference: ChEMBL document CHEMBL5365543, “Benzamidine Conjugation Converts Expelled Potential Active Agents into Antifungals against Drug-Resistant Fungi” (J Med Chem, 2023)
Converted amounts (≈) assume the structure as drawn. The source made the active and inactive calls. The rule behind the calls is not given here.

How the values were obtained:
Candida albicans [1] = assay: Antifungal activity against wild-type Candida albicans SC5314 assessed as inhibition of fungal growth measured after 24 hrs by CLSI based microtiter plate analysis; format: functional
[2] = Drug accumulation in wild-type Candida albicans SC5314 at 50 microg/ml incubated for 3 hrs by HPLC analysis; format: ADME; conditions: dose 50 µg/ml
Candida albicans [3] = assay: microbe, parasite or virus in culture; format: functional; conditions: DSY654, time 24 hrs
Description: Antifungal activity against efflux pump-deficient Candida albicans DSY654 assessed as inhibition of fungal growth measured after 24 hrs by CLSI based microtiter plate analysis

Candida albicans [4] = assay: Antifungal activity against clinical isolate fluconazole-resistant Candida albicans Gu5 harbouring TAC1 mutation overexpressing efflux pump CdrL and Cdr2 assessed as inhibition of fungal growth measured after 24 hrs by CLSI based microtiter plate analysis; format: functional
Candida albicans [5] = assay: Antifungal activity against clinical isolate fluconazole-resistant Candida albicans CA632 assessed as inhibition of fungal growth measured after 24 hrs by CLSI based microtiter plate analysis; format: functional
[Candida] auris [6] = Antifungal activity against clinical isolate fluconazole-resistant Candida auris CBS12776 assessed as inhibition of fungal growth measured after 24 hrs by CLSI based microtiter plate analysis; format: functional; conditions: Candidozyma auris
Candida albicans [7] = assay: Antifungal activity against clinical isolate Candida albicans YEM15 overexpressing efflux pump CdrL and Cdr2 assessed as inhibition of fungal growth measured after 24 hrs by CLSI based microtiter plate analysis; format: functional
Candida albicans [8] = assay: Antifungal activity against clinical isolate fluconazole-resistant Candida albicans G5 harbouring MRR1 mutation overexpressing MdrL assessed as inhibition of fungal growth measured after 24 hrs by CLSI based microtiter plate analysis; format: functional
Cryptococcus neoformans = assay: Antifungal activity against clinical isolate fluconazole-resistant Cryptococcus neoformans H99 assessed as inhibition of fungal growth measured after 24 hrs by CLSI based microtiter plate analysis; format: functional
Nakaseomyces glabratus = assay: Antifungal activity against clinical isolate fluconazole-resistant Candida glabrata CG2 assessed as inhibition of fungal growth measured after 24 hrs by CLSI based microtiter plate analysis; format: functional
Candida tropicalis = assay: Antifungal activity against clinical isolate fluconazole-resistant Candida tropicalis CT10 assessed as inhibition of fungal growth measured after 24 hrs by CLSI based microtiter plate analysis; format: functional
Candida albicans [9] = assay: Antifungal activity against clinical isolate Candida albicans YEM13 overexpressing efflux pump MdrL assessed as inhibition of fungal growth measured after 24 hrs by CLSI based microtiter plate analysis; format: functional
[Candida] auris [10] = Antifungal activity against clinical isolate fluconazole-resistant Candida auris CBS12774 assessed as inhibition of fungal growth measured after 24 hrs by CLSI based microtiter plate analysis; format: functional; conditions: Candidozyma auris
Candida albicans [11] = assay: Antifungal activity against clinical isolate Candida albicans SCUPC2R14MPG2A harbouring UPC2 mutation overexpressing […] Erg11 assessed as inhibition of fungal growth measured after 24 hrs by CLSI based microtiter plate analysis; format: functional
Candida albicans [12] = assay: Antifungal activity against clinical isolate fluconazole-resistant Candida albicans DSY296 harbouring TAC1 mutation overexpressing efflux pump CdrL and Cdr2 assessed as inhibition of fungal growth measured after 24 hrs by CLSI based microtiter plate analysis; format: functional
[13] = Candida albicans, SC5314, read-out: MIC80

## C=C1C(=O)[C@@]23CC[C@H]4[C@@](C)(CCC[C@@]4(C)C(=O)O)[C@@H]2CC[C@]1(O)C3
Candida albicans [1]
  MIC: inactive
[2]; BLD = below limit of detection
  Drug uptake: Bld
Candida albicans [3]
  MIC: 256 µg/mL (≈ 770 µM)

## Clc1ccc2c(c1)CCc1cccnc1C2=C1CCNCC1 [DESLORATADINE]
[2]; BLD = below limit of detection
  Drug uptake: Bld

## C=C1C(=O)[C@@]2(C)CC[C@@H]3[C@@]1(CC[C@H]1[C@@]3(C)CCC[C@@]1(C)C(=O)OCCCCCCCCCOc1ccc(C(=N)N)cc1)C2
Candida albicans [1]; Candida albicans, SC5314
  MIC: 32 µg/mL (≈ 54.2 µM)
[2]; BLD = below limit of detection
  Drug uptake: Bld

## C[C@@H]1CC[C@@]2(OC1)O[C@H]1C[C@H]3[C@@H]4CC=C5C[C@@H](OC(=O)CCCOc6ccc(C(=N)N)cc6)CC[C@]5(C)[C@H]4CC[C@]3(C)[C@H]1[C@@H]2C
Candida albicans [1]; [13]
  MIC80: 64 µg/mL (≈ 103 µM)
[2]
  Drug uptake: Active

## CC1(C)CC[C@]2(C(=O)OCCCOc3ccc(C(=N)N)cc3)CC[C@]3(C)C(=CC[C@@H]4[C@@]5(C)CC[C@H](O)C(C)(C)[C@@H]5CC[C@]43C)[C@@H]2C1
Candida albicans [1]; [13]
  MIC80: 4 µg/mL (≈ 6.32 µM)
[2]
  Drug uptake: Active

## Fc1ccc(C(c2ccc(F)cc2)N2CCN(C/C=C/c3ccccc3)CC2)cc1 [FLUNARIZINE]
Candida albicans [1]
  MIC: inactive
Candida albicans [3]
  MIC: 8 µg/mL (≈ 19.8 µM)

## N=C(N)c1ccc(OCCCN2CCN(C(c3ccc(F)cc3)c3ccc(F)cc3)CC2)cc1
Candida albicans [1]; [13]
  MIC80: 32 µg/mL (≈ 68.9 µM)
[2]
  Drug uptake: Active

## N=C(N)c1ccc(OCCCBr)cc1
Candida albicans [1]; [13]
  MIC80: > 256 µg/mL
Candida albicans [3]
  MIC80: > 256 µg/mL

## C[C@@H]1[C@H](O)[C@@H](C)/C=C/C=C/C=C/C=C/C=C/C=C/C=C/[C@H](O[C@@H]2O[C@H](C)[C@@H](O)[C@H](N)[C@@H]2O)C[C@@H]2O[C@](O)(C[C@@H](O)C[C@@H](O)[C@H](O)CC[C@@H](O)C[C@@H](O)CC(=O)O[C@H]1C)C[C@H](O)[C@H]2C(=O)O [AMPHOTERICIN B]
Candida albicans [1]; Candida albicans, SC5314, 24 h, read-out: MIC80
  MIC80: 0.5 µg/mL (≈ 0.541 µM)
Candida albicans [4]
  MIC80: 1 µg/mL (≈ 1.08 µM)
Candida albicans [5]
  MIC80: 0.5 µg/mL (≈ 0.541 µM)
[Candida] auris [6]
  MIC80: 1 µg/mL (≈ 1.08 µM)
Candida albicans [7]
  MIC80: 2 µg/mL (≈ 2.16 µM)
Candida albicans [8]
  MIC80: 0.5 µg/mL (≈ 0.541 µM)
Cryptococcus neoformans
  MIC80: 1 µg/mL (≈ 1.08 µM)
Nakaseomyces glabratus
  MIC80: 0.5 µg/mL (≈ 0.541 µM)
Candida tropicalis
  MIC80: 2 µg/mL (≈ 2.16 µM)
Candida albicans [9]
  MIC80: 0.5 µg/mL (≈ 0.541 µM)
[Candida] auris [10]
  MIC80: 1 µg/mL (≈ 1.08 µM)
Candida albicans [11]
  MIC80: 0.5 µg/mL (≈ 0.541 µM)
Candida albicans [12]
  MIC80: 0.5 µg/mL (≈ 0.541 µM)

## BrCCC[P+](c1ccccc1)(c1ccccc1)c1ccccc1.[Br-]
Candida albicans [1]; [13]
  MIC80: > 256 µg/mL
Candida albicans [3]
  MIC80: > 256 µg/mL

## C=C(C)[C@@H]1CC[C@]2(C(=O)OCCCOc3ccc(C(=N)N)cc3)CC[C@]3(C)[C@H](CC[C@@H]4[C@@]5(C)CC[C@H](O)C(C)(C)[C@@H]5CC[C@]43C)[C@@H]12
Candida albicans [1]; [13]
  MIC80: 64 µg/mL (≈ 101 µM)
[2]
  Drug uptake: Active

## CCc1n(CCCI)c2ccccc2[n+]1C.[I-]
Candida albicans [1]; [13]
  MIC80: > 256 µg/mL
Candida albicans [3]
  MIC80: > 256 µg/mL

## C#C[C@]1(O)CC[C@H]2[C@@H]3CCC4=CCCC[C@@H]4[C@H]3C(=C)C[C@@]21CC [DESOGESTREL]
[2]; BLD = below limit of detection
  Drug uptake: Bld
Candida albicans [3]
  MIC: 4 µg/mL (≈ 12.9 µM)

## O=C(O)c1ccccc1Nc1cccc(C(F)(F)F)c1 [FLUFENAMIC ACID]
Candida albicans [1]; Candida albicans, SC5314
  MIC: > 256 µg/mL
[2]; BLD = below limit of detection
  Drug uptake: Bld

## C=C1[C@H](O)[C@@]23CC[C@H]4[C@@](C)(CCC[C@@]4(C)C(=O)OCCCOc4ccc(C(=N)N)cc4)[C@@H]2CC[C@]1(O)C3
Candida albicans [1]; [13]
  MIC80: 64 µg/mL (≈ 125 µM)
[2]
  Drug uptake: Active

## CC/C(=C(/CC)c1ccc(O)cc1)c1ccc(O)cc1 [DIETHYLSTILBESTROL]
Candida albicans [3]
  MIC: 4 µg/mL (≈ 14.9 µM)

## CC1(C)C2CCC1(C)C(O)C2 (centres undefined) [BORNEOL]
Candida albicans [1]; Candida albicans, SC5314
  MIC: > 256 µg/mL
[2]; BLD = below limit of detection
  Drug uptake: Bld

## C=CCc1ccc(O)c(-c2ccc(O)c(CC=C)c2)c1 [HONOKIOL]
[2]; BLD = below limit of detection
  Drug uptake: Bld
Candida albicans [3]
  MIC: 4 µg/mL (≈ 15 µM)

## C[C@@]12CC[C@@H]3[C@@](CC[C@H]4[C@@]3(C)CCC[C@@]4(C)C(=O)O)(CC1=O)C2 [ISOSTEVIOL]
[2]; BLD = below limit of detection
  Drug uptake: Bld

## C=C1C(=O)O[C@@]23CC[C@H]4[C@@](C)(CCC[C@@]4(C)C(=O)O)[C@@H]2CC[C@]1(O)C3
Candida albicans [1]; Candida albicans, SC5314
  MIC: > 256 µg/mL
[2]; BLD = below limit of detection
  Drug uptake: Bld
